Reference: article PMC9442914, “Antidiabetic potential of Lysiphyllum strychnifolium (Craib) A. Schmitz compounds in human intestinal epithelial Caco-2 cells and molecular docking-based approaches” (BMC Complementary Medicine and Therapies, 2022)
Entries after “also recorded” stand apart in the source; their conditions may differ.

Tests used:
[1] = test system: GLUT5 mRNA; assay: Transcription of GLUT5 mRNA in Caco-2 cells (RT-PCR); type: cell-based, human; conditions: 62.50 µg/ml, normalized to GAPDH
Protocol: (§1) RNA was extracted from Caco-2 cells using an RNA extraction kit (QIAGEN, Hilden, Germany). Reverse transcription was performed with SuperScript III Reverse Transcriptionase (Thermo Fisher Scientific, Waltham, USA). cDNA was synthesized from 2 µg of total RNA according to the manufacturer’s instructions. Then, the cDNA was maintained at − 20°C for further analysis by real-time PCR. The specific primers used in the experiment were as follows: SGLT1, 5’-[…]-3’ (forward) and 3’-[…]-5’ (reverse); GLUT2, 5’-[…]-3’ (forward) and 3’-[…]-5’ (reverse); GLUT5, 5’- […]-3’ (forward) and 3’-[…]-5’ (reverse). All conditions were performed in triplicate with 3 independent experiments. The real-time qPCR mixture (10 µL) comprised 1 µL of DNA polymerase, template DNA (25 ng), 1 µL of DEPC, and 1.2 µL of forward and reverse primers. Thermal cycling (Applied Biosystems, Waltham, USA) consisted of (denaturation 95 °C for 20 s, annealing 63.3 °C for 30 s, and extension 72 °C for 20 s, 40 cycles. The gene expression data were normalized to the internal control gene GAPDH and then compared using comparative delta-delta Ct.

[2] = test system: GLUT2 mRNA; assay: Transcription of GLUT2 mRNA in Caco-2 cells (RT-PCR); type: cell-based, human; conditions: 62.50 µg/ml, normalized to GAPDH
Protocol: as §1

[3] = test system: SGLT1 mRNA; assay: Transcription of SGLT1 mRNA in Caco-2 cells (RT-PCR); type: cell-based, human; conditions: 62.50 µg/ml, normalized to GAPDH
Protocol: as §1

[4] = DPPH radical scavenging assay; conditions: mean ± SEM
Protocol: The method by Kumar, Sanjiv et al. was adopted for DPPH (2,2-diphenyl-1-picrylhydrazyl) assays with slight modifications. Briefly, DPPH solution (100 µl) and extract solution (100 µl) were added to a 96-well microplate and thoroughly mixed. The absorbance was measured at 517 nm after a 30-minute incubation time at room temperature.

[5] = ABTS scavenging assay; conditions: mean ± SEM
[6] = test system: α-glucosidase in Caco-2 cells; assay: Inhibition of α-glucosidase activity in Caco-2 cell monolayer; type: cell-based, human; conditions: apical side of Caco-2 monolayer; 31.25 and 62.50 ug/ml tested, concentration of the values not given
Protocol: (§2) Caco-2 cells were obtained from the American Type Culture Collection (ATCC). The cells were cultured in DMEM with 10% FBS and 1% penicillin–streptomycin solution and were maintained at 37 °C in a humidified environment of 95% air and 5% CO2. For the viability test, the Caco-2 cells were seeded on 96-well plates, and 24-well Transwell plates were used to determine α-glucosidase inhibition. […] Fresh media was supplied to the cells every two days during this period.
Caco-2 cells were seeded in 24-transwell plates at a density of 10,000 cells per well for 21 days. The cells were washed in 1X PBS after the culture media was removed. […] At the same time, the lower chamber was filled with glucose-free medium (500 µl). Then, 50 µl of culture media from the upper chamber was taken and measured by the glucose oxidase method.

[7] = test system: Caco-2 cells; assay: Cell viability assay (MTT) in Caco-2 cells; type: cell-based, human; conditions: concentrations from 0 to 62.50 ug/ml, 24 h
Protocol: as §2
Caco-2 cells were obtained from the American Type Culture Collection (ATCC). The cells were grown in complete medium (DMEM with 10% FBS, 100 units/mL penicillin, and 100 µg/mL streptomycin) and plated at a density of 10,000 cells per well in 96-well plates for 21 days. Then, the cells were treated with extracts at concentrations ranging from […] for another 24 h. DMSO (0.1%) was added to the control group. The MTT test was used to measure cell viability after treatment. In a 96-well plate, 100 µl of MTT at a concentration of 0.5 mg/ml was applied to each well. The MTT solution was withdrawn after 3 h of incubation at 37 °C, and formazan crystals were dissolved in 100 µl of DMSO. At 570 nm, the purple color that was generated was detected spectrophotometrically (with a reference OD of 690). Prism 6 software was used to calculate cell viability. The appropriate concentration of extracts was chosen for future experiments.

C[C@H]1O[C@H](O[C@H]2[C@H](O)[C@@H](O)[C@@H](O[C@H]3[C@H](O)[C@@H](O)C(O)O[C@@H]3CO)O[C@@H]2CO)[C@H](O)[C@@H](O)[C@@H]1N[C@H]1C=C(CO)[C@@H](O)[C@H](O)[C@H]1O (stereo partly drawn) [Acarbose, acarbose, reference compound]
Transcription of GLUT5 gene (mRNA) [1]: downregulated | Transcription of GLUT2 gene (mRNA) [2]: downregulated | Transcription of SGLT1 gene (mRNA) [3]: downregulated

O=C1O[C@H]([C@@H](O)CO)C(O)=C1O [Ascorbic acid, ascorbic acid, reference compound]
EC50 [4]: 30.38 ± 0.18 µM | EC50 [5]: 25.1 ± 0.19 µM

C[C@@H]1O[C@@H](Oc2coc3cc(O)cc(O)c3c2=O)[C@H](O)[C@H](O)[C@H]1O [Compound 1, 3,5,7-trihydroxychromone-3-O-α-L-rhamnopyranoside]
Transcription of GLUT5 gene (mRNA) [1]: downregulated | Transcription of GLUT2 gene (mRNA) [2]: downregulated | EC50 [4]: 5.22 ± 0.2 µM | EC50 [5]: 10.3 ± 0.2 µM | Transcription of SGLT1 gene (mRNA) [3]: downregulated | α-glucosidase activity compared with untreated cells [6]: 59.75% | Cytotoxicity to Caco-2 cells (MTT) [7]: without cytotoxicity; also recorded: not cytotoxic
